Values quoted from earlier work as cited in US20090131395A1, “BIPHENYLAZETIDINONE CHOLESTEROL ABSORPTION INHIBITORS” (MICROBIA, INC., priority 2005, published 2009).

Target: T1, ileal Na+/bile acid cotransporter (Homo sapiens, UniProt Q12908)
T1 sequence (Q12908 1-348): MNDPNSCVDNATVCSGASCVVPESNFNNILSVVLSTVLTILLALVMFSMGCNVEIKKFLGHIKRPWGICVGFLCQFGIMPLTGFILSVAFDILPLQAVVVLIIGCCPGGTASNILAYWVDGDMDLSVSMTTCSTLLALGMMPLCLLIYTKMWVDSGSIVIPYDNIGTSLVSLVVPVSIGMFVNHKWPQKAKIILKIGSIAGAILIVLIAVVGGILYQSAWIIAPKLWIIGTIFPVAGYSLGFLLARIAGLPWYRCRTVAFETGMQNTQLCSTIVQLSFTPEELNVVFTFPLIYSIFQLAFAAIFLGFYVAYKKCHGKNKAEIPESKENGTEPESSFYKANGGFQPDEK
Conditions: in vivo

SMILES: O=C1[C@H](CC[C@H](O)c2ccc(F)cc2)[C@@H](c2ccc(O)cc2)N1c1ccc(F)cc1 [ezetimibe, (3R,4S)-1-(4-fluorophenyl)-3-[(3S)-3-(4-fluorophenyl)-3-hydroxypropyl]-4-(4-hydroxyphenyl)azetidin-2-one]
- inhibition of the absorption of taurocholic acid: does not inhibit the absorption of taurocholic acid
